Measured values taken from patent EP1914309A1 (priority 2006, dated 2008).

What was measured:
HIV-1 = conditions: concentration at which cell infection by a virus having tropism for said cell is 100% blocked
Text: A "saturating dose of an inhibitor" denotes a concentration of inhibitor at which cell infection by a virus having tropism for said cell is 100% blocked by the inhibitor, which is function of the inhibitor.

X4 tropic virus = conditions: mixture of viral envelopes from reference viruses NL4-3 and JR-CSF; infection via CXCR4; inhibitor at saturating dose; Figure 5
Description: Viral supernatants are used to infect U373MG-CD4 indicator cells expressing either the CCR5 or CXCR4 co-receptor (U373-CCR5 or U373-CXCR4), in presence or absence of co-receptor inhibitors at a saturating dose. The indicator cells contain the lacZ gene under control of the HIV-1 LTR which allows the determination of viral infection and thus of viral tropism using a colorimetric assay based on the expression of the β-galactosidase by Tat (see Figure 4).
In the RVA tropism, viral infection is detected independently for both co-receptors. A sample is considered positive when the ratio [OD sample/ OD control] reaches or exceeds 1.5 (the control being an R5-tropic virus on CXCR4+ cells or a X4-tropic virus on CCR5+ cells).
On the day of infection, the condition of the indicator U373-CCR5 and U373-CXCR4 cells is verified. CXCR4- and CCR5-inhibitors are prepared at 4x their final concentrations used in the test (e.g. 4x AMD-3100 at 8 µg/ml). […]
The β-galactosidase produced by the infected U373-CCR5 or U373-CXCR4 cells is quantified: the level of marker expressed is quantified by measuring the β-galactosidase activity by using a CPRG (chlorophenolred-β-D-galactopyranoside) substrate. […]

c1cc(CN2CCCNCCNCCCNCC2)ccc1CN1CCCNCCNCCCNCC1 [AMD3100]
saturating dose of an inhibitor (HIV-1): up to 2 µg/ml
inhibition of infection (X4 tropic virus): 100%
